In patent US20180228795A1, “COMBINATION THERAPY FOR CANCER” (Eli Lilly and Company, priority 2015, published 2018):

How the values were obtained:
PDX TNBC Model CTG-1520 = assay: Antitumor effects in PDX mouse model of TNBC; assay type: in vivo; conditions: PDX model CTG-1520; A 10 mg/kg SC BID 3 days on/4 off ×4; B 7.5 mg/kg PO BID×28; versus vehicle
How it was run: (§1)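 Tumor fragments were grown subcutaneously in immunocompromised female mice and dosed once volumes were approximately 150-250 mm^3. Treatment was either agent alone or both: subcutaneous CHK1 inhibitor 10 mg/kg twice daily on days 1/2/3 weekly for 4 weeks, oral PI3K/mTOR inhibitor 7.5 mg/kg twice daily for 28 days.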

PDX TNBC Model MAXF 508 = assay: Antitumor effects in PDX mouse model of TNBC; assay type: in vivo; conditions: PDX model MAXF 508; A 10 mg/kg SC BID 3 days on/4 off ×4; B 7.5 mg/kg PO BID×28; versus vehicle
How it was run: as §1

Structure (SMILES) | % Rsp. (% ΔT/ΔC or % Regression) (PDX TNBC Model CTG-1520) [%] | % Rsp. (% ΔT/ΔC or % Regression) (PDX TNBC Model MAXF 508) [%]
CO[C@@H](C)Cn1c(=O)n(C)c2cnc3ccc(-c4cncc(C(C)(C)O)c4)cc3c21 [Compound B, 8-[5-(1-hydroxy-1-methylethyl)pyridin-3-yl]-1-[(2S)-2-methoxypropyl]-3-methyl-1,3-dihydro-2H-imidazo[4,5-c]quinolin-2-one] | 61.2 | 41.3
COc1cccc(OCCCN)c1-c1cc(Nc2cnc(C#N)cn2)n[nH]1.CS(=O)(=O)O [Compound A, 5-(5-(2-(3-aminopropoxy)-6-methoxyphenyl)-1H-pyrazol-3-ylamino)pyrazine-2-carbonitrile methanesulfonate hydrate] | 49.9 | −100.0
